{
  "source": "ChEMBL document CHEMBL5260809",
  "about": "“Isoxazole ring as a useful scaffold in a search for new therapeutic agents” (Eur J Med Chem, 2017)",
  "key": {"[1]": {"test": "Selectivity index, ratio of CC50 for human HeLa cells to IC50 for Coxsackievirus B3 isolate 97-927", "assay_type": "toxicity", "conditions": "read-out: Ratio CC50/IC50"}, "[2]": {"test": "Selectivity index, ratio of CC50 for human HeLa cells to IC50 for Human rhinovirus 2", "assay_type": "toxicity", "conditions": "read-out: Ratio CC50/IC50"}, "Coxsackievirus B3": {"test_system": "Coxsackievirus B3", "test": "Antiviral activity against Coxsackievirus B3", "assay_type": "functional, organism-based", "conditions": "Enterovirus B"}, "Rattus norvegicus [3]": {"organism": "Rattus norvegicus", "test": "Anticonvulsant activity in rat maximal electroshock seizure model", "assay_type": "functional"}, "[4]": {"test": "Toxicity in rat", "conditions": "in vivo"}, "[5]": {"test": "Induction of sodium-22 influx in human TE-671 cells", "assay_type": "functional, cell-based"}, "Rattus norvegicus [6]": {"organism": "Rattus norvegicus", "test": "Protective index, ratio of TD50 for rat to ED50 for anticonvulsant activity in rat", "assay_type": "functional"}, "Mus musculus": {"organism": "Mus musculus", "test": "Antithrombotic activity in Swiss mouse model of collagen and adrenaline-induced thrombosis assessed as increase in bleeding time", "assay_type": "functional"}, "MDA-MB-231": {"test_system": "MDA-MB-231", "test": "Antimigratory activity against human MDA-MB-231 cells", "assay_type": "functional, cell-based"}, "Staphylococcus aureus": {"test_system": "Staphylococcus aureus", "test": "Antibacterial activity against Staphylococcus aureus assessed as zone of inhibition at 50 ug/ml by agar disc diffusion method", "assay_type": "functional", "conditions": "read-out: IZ"}, "Escherichia coli": {"test_system": "Escherichia coli", "test": "Antibacterial activity against Escherichia coli assessed as zone of inhibition at 50 ug/ml by agar disc diffusion method", "assay_type": "functional", "conditions": "read-out: IZ"}, "[7]": {"test_system": "Human immunodeficiency virus 1", "test": "Antiviral activity against HIV-1 assessed as reduction in multinucleated cells production at 25 ug/ml", "assay_type": "functional", "design": "scale not given: the % may be the effect or the level left", "conditions": "dose 25 µg/ml"}, "[8]": {"biological_target": "T1, Muscarinic acetylcholine receptor M1 (Rattus norvegicus, UniProt P08482)", "T1 sequence (P08482 whole entry)": "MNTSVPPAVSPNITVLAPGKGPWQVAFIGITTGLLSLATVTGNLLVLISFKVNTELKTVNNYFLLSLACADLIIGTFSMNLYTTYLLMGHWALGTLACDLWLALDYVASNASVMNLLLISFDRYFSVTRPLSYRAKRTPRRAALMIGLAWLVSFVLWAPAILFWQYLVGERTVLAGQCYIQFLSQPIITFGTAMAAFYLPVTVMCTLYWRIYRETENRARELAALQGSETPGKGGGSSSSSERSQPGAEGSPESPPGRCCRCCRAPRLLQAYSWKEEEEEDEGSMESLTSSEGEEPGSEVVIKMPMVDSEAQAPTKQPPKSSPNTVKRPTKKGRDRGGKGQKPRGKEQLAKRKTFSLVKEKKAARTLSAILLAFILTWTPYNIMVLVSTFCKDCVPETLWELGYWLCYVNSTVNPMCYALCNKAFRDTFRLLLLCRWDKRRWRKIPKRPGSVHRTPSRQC", "test": "Agonist activity at rat M1 muscarinic receptor"}, "[9]": {"biological_target": "T2, Muscarinic acetylcholine receptor M2 (Rattus norvegicus, UniProt P10980)", "T2 sequence (P10980 whole entry)": "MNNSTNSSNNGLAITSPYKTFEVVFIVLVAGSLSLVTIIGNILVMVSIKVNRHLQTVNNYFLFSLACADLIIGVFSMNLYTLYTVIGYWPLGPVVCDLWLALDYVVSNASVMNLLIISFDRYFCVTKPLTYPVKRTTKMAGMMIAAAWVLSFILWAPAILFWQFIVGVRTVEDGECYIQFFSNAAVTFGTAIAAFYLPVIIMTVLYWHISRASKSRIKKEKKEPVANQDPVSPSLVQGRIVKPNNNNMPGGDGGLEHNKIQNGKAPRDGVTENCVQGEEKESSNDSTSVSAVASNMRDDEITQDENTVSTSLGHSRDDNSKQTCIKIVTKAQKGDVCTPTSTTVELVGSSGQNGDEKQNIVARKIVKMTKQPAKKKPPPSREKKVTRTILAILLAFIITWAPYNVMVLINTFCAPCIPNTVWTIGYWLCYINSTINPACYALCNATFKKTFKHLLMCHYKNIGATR", "test": "Agonist activity at rat M2 muscarinic receptor"}},
  "note": "pEC50, pIC50: −log10 of the molar value.",
  "data": [
    {"smiles": "Cc1cc(CCCOc2ccc(-c3cccc(F)c3)cc2)on1", "values": [
      {"measurement": "selectivity ratio", "setting": "[1]", "result": 2.9},
      {"measurement": "selectivity ratio", "setting": "[2]", "result": 230}
    ]},
    {"smiles": "Cc1cn(Cc2cc([C@@H](Cc3ccccc3)NC(=O)OC(C)(C)C)no2)c(=O)n(C(=O)c2ccccc2)c1=O", "values": [
      {"measurement": "EC50", "setting": "Coxsackievirus B3", "result": 10.6, "unit": "µg/mL"}
    ]},
    {"smiles": "Cc1cc(NC(=O)c2c(C)cccc2C)on1", "values": [
      {"measurement": "ED50", "setting": "Rattus norvegicus [3]", "result": 8.9, "unit": "mg/kg"},
      {"measurement": "TD50", "setting": "[4]", "result": "> 500", "unit": "mg/kg"}
    ]},
    {"smiles": "Cc1cc(C2CC3CCC2N3)on1", "note": "(stereo not given)", "values": [
      {"measurement": "pEC50", "setting": "[5]", "result": 5.59}
    ]},
    {"smiles": "Cc1cc(NC2=CC(=O)C(C(=O)OC(C)(C)C)C(C)C2)no1", "note": "(stereo not given)", "values": [
      {"measurement": "Ratio", "setting": "Rattus norvegicus [6]", "result": ">49.6"}
    ]},
    {"smiles": "N#Cc1ccc(CN(Cc2cc(-c3ccccc3Cl)on2)C(CCCNC(=N)N)C(N)=O)cc1", "note": "(stereo not given)", "values": [
      {"measurement": "Activity", "setting": "Mus musculus", "result": 87.5, "unit": "%"}
    ]},
    {"smiles": "NC(=O)c1ncn([C@@H]2O[C@H](CO)[C@@H](O)[C@H]2O)n1", "note": "[RIBAVIRIN]", "values": [
      {"measurement": "EC50", "setting": "Coxsackievirus B3", "result": 92.5, "unit": "µg/mL"}
    ]},
    {"smiles": "Clc1ccc([C@H]2CC3CCC2N3)cn1", "note": "(stereo not given in full)", "values": [
      {"measurement": "pEC50", "setting": "[5]", "result": 6.28}
    ]},
    {"smiles": "CCc1cc(-c2oncc2-c2ccc(OC)cc2)c(O)cc1OC", "values": [
      {"measurement": "pIC50", "setting": "MDA-MB-231", "result": 6.82}
    ]},
    {"smiles": "O=C(N[C@H](CO)[C@H](O)c1ccc([N+](=O)[O-])cc1)C(Cl)Cl", "note": "[CHLORAMPHENICOL]", "values": [
      {"measurement": "zone of inhibition at 50 µg/mL", "setting": "Staphylococcus aureus", "result": 23, "unit": "mm"},
      {"measurement": "zone of inhibition at 50 µg/mL", "setting": "Escherichia coli", "result": 21, "unit": "mm"}
    ]},
    {"smiles": "Cc1cc(CCCOc2ccc(-c3ccc(F)cc3)cc2)on1", "values": [
      {"measurement": "selectivity ratio", "setting": "[1]", "result": "> 37.3"},
      {"measurement": "selectivity ratio", "setting": "[2]", "result": "> 5560"}
    ]},
    {"smiles": "CCc1cc(-c2oncc2-c2ccc(Br)cc2)c(O)cc1OC", "values": [
      {"measurement": "pIC50", "setting": "MDA-MB-231", "result": 7.30}
    ]},
    {"smiles": "Cc1cc(CCCOc2ccc(-c3ccccc3C)cc2)on1", "values": [
      {"measurement": "selectivity ratio", "setting": "[1]", "result": 2.6},
      {"measurement": "selectivity ratio", "setting": "[2]", "result": 57.5}
    ]},
    {"smiles": "O=C(CBr)c1cc(-c2ccccc2)no1", "values": [
      {"measurement": "Activity", "setting": "[7]", "result": 95, "unit": "%"}
    ]},
    {"smiles": "CCOC(=O)C1C(c2c(OCc3ccccc3)c(Br)cc3c(Cl)c(Cl)c(=O)oc23)=NOC1c1ccc(C(F)(F)F)cc1", "note": "(stereo not given)", "values": [
      {"measurement": "zone of inhibition at 50 µg/mL", "setting": "Staphylococcus aureus", "result": 24, "unit": "mm"},
      {"measurement": "zone of inhibition at 50 µg/mL", "setting": "Escherichia coli", "result": 20, "unit": "mm"}
    ]},
    {"smiles": "C#CCOc1noc2c1CNCCC2C", "note": "(stereo not given)", "values": [
      {"measurement": "pEC50", "setting": "[8]", "result": 5.89},
      {"measurement": "pEC50", "setting": "[9]", "result": "< 4.29"}
    ]},
    {"smiles": "Cc1cc(C(=O)Nc2c(C)cccc2C)no1", "values": [
      {"measurement": "ED50", "setting": "Rattus norvegicus [3]", "result": 5.5, "unit": "mg/kg"},
      {"measurement": "TD50", "setting": "[4]", "result": "> 500", "unit": "mg/kg"}
    ]}
  ]
}
